Calls of active or inactive are those of the source. The rule behind the calls is not given here.
How the values were obtained:
[1] = Clearance in male C57BL/6J mouse at 5 mg/kg, iv administered as single dose and measured over 24 hrs by LC-MS/MS analysis; type: ADME, organism-based; conditions: in vivo
[2] = system: Mus musculus; experiment: (§1) Antiinflammatory activity in male wild type C57BL/6 mouse model of DSS-induced ulcerative colitis assessed as reduction in daily disease activity index at 5 to 20 mg/kg, po administered for 10 days with subsequent treatment of DSS for 7 days followed by normal drinking water for 3 days; type: functional, organism-based; conditions: dose 5-20 mg/kg, time 10.0 day
[3] = system: Mus musculus; experiment: as §1, with “reduction in IL-1beta level in colon at 5” for “reduction in daily disease activity index at 5”, “3 days by immunoblot analysis” for “3 days”; type: functional, organism-based; conditions: dose 5-20 mg/kg, time 10.0 day
[4] = Cmax in male C57BL/6J mouse at 5 mg/kg, po administered as single dose and measured over 24 hrs by LC-MS/MS analysis; type: ADME, organism-based; conditions: in vivo
[5] = system: BMDM; experiment: Effect on LPS/nigericin induced NLRP3 intracellular expression in M-CSF induced C57BL/6 mouse BMDM cells at 0.5 to 20 uM preincubated with LPS for 4 hrs followed by compound addition for 30 mins and further incubated with nigericin for 30 mins by Western blot analysis; type: functional, cell-based; conditions: dose 0.5-20 µM, time 60.0 min
[6] = system: THP-1; experiment: Inhibition of LPS/nigericin induced caspase-1 P20 release in PMA-differentiated human THP-1 cells at 0.5 to 20 uM preincubated with LPS for 4 hrs followed by compound addition for 30 mins and further incubated with nigericin for 30 mins by Western blot analysis; type: functional, cell-based; conditions: dose 0.5-20 µM, time 60.0 min
[7] = system: THP-1; experiment: Inhibition of NLRP3-ASC interaction in LPS/nigericin induced PMA-differentiated human THP-1 cells at 5 uM preincubated with LPS for 4 hrs followed by compound addition for 30 mins and further incubated with nigericin for 30 mins by Co-immunoprecipitation analysis; type: cell-based; conditions: time 60.0 min
[8] = system: Mus musculus; experiment: (§2) Antiinflammatory activity in male wild type C57BL/6 mouse model of DSS-induced ulcerative colitis assessed as reduction in body weight loss at 5 to 20 mg/kg, po administered for 10 days with subsequent treatment of DSS for 7 days followed by normal drinking water for 3 days; type: functional, organism-based; conditions: dose 5-20 mg/kg, time 10.0 day
[9] = Volume of distribution in male C57BL/6J mouse at 5 mg/kg, iv administered as single dose and measured over 24 hrs by LC-MS/MS analysis; type: ADME, organism-based; conditions: in vivo
[10] = AUC (0 to t) in male C57BL/6J mouse at 5 mg/kg, iv administered as single dose and measured over 24 hrs by LC-MS/MS analysis; type: ADME, organism-based; conditions: in vivo
[11] = system: THP-1; experiment: Effect on LPS/nigericin induced intracellular pro-IL-1beta protein expression in PMA-differentiated human THP-1 cell lysate at 0.5 to 20 uM pretreated with compound followed by LPS stimulation for 4 hrs and further stimulated with nigericin by Western blot analysis; type: functional, subcellular; conditions: dose 0.5-20 µM
[12] = system: Mus musculus; experiment: Antiinflammatory activity in male NLRP3 knockout C57BL/6 mouse model of DSS-induced ulcerative colitis assessed as reduction in IL-1beta level in colon at 20 mg/kg, po administered for 10 days with subsequent treatment of DSS in drinking water by immunohistochemistry analysis; type: functional, organism-based; conditions: time 10.0 day
[13] = system: THP-1; experiment: Effect on LPS/nigericin induced intracellular ASC expression in PMA-differentiated human THP-1 cells at 0.5 to 20 uM preincubated with LPS for 4 hrs followed by compound addition for 30 mins and further incubated with nigericin for 30 mins by Western blot analysis; type: functional, cell-based; conditions: dose 0.5-20 µM, time 60.0 min
[14] = AUC (0 to infinity) in male C57BL/6J mouse at 5 mg/kg, iv administered as single dose and measured over 24 hrs by LC-MS/MS analysis; type: ADME, organism-based; conditions: in vivo
[15] = molecular target: NLR family CARD domain-containing protein 4 (Homo sapiens) (UniProt Q9NPP4); experiment: Inhibition of flagellin-induced NLRC4 inflammasome activation in LPS-primed human THP-1 cells assessed as inhibition of IL-1beta secretion at 5 uM pretreated with LPS for 4 hrs followed by compound addition for 0.5 hrs and further stimulated with flagellin for 4 hrs by Western blot analysis; type: cell-based; conditions: time 4.5 hrs
NLR family CARD domain-containing protein 4 (Homo sapiens), sequence (Q9NPP4 whole entry, the tested form may be a part): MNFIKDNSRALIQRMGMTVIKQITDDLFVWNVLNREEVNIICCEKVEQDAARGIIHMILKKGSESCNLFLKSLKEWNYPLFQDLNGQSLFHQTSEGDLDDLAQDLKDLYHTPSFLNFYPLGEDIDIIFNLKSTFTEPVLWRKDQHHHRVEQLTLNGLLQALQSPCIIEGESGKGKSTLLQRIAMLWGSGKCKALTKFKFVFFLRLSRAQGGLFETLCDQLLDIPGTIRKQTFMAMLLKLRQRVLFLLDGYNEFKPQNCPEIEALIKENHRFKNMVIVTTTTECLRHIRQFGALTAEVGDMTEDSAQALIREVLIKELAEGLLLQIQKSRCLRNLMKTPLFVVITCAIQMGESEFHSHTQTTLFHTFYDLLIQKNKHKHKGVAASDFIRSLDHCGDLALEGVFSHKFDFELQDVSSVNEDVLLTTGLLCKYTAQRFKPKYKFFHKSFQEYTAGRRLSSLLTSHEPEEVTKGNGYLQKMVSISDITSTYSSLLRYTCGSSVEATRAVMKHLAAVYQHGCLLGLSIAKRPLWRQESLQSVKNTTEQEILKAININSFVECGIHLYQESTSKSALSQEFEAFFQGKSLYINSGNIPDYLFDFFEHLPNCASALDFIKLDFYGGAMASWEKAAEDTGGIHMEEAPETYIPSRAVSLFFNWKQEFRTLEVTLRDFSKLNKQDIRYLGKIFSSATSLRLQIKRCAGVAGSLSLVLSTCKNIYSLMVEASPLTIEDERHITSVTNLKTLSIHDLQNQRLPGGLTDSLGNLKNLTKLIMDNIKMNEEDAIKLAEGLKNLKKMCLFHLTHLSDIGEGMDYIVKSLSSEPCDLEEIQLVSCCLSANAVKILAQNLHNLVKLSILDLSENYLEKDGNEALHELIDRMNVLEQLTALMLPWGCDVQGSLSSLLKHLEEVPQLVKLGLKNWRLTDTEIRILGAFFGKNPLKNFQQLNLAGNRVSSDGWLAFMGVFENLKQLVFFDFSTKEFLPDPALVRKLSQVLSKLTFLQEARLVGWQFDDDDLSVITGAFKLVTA

[16] = system: THP-1; experiment: Effect on LPS/nigericin induced intracellular pro-caspase-1 protein expression in PMA-differentiated human THP-1 cell lysate at 0.5 to 20 uM pretreated with compound followed by LPS stimulation for 4 hrs and further stimulated with nigericin by Western blot analysis; type: functional, subcellular; conditions: dose 0.5-20 µM
[17] = system: THP-1; experiment: Inhibition of NF-kappaB pathway in PMA-differentiated human THP-1 cells assessed as inhibition of LPS/nigericin induced TNF-alpha production at 0.5 to 20 uM pretreated with compound followed by LPS stimulation for 4 hrs and further stimulated with nigericin by ELISA; type: cell-based; conditions: dose 0.5-20 µM
[18] = AUC (0 to t) in male C57BL/6J mouse at 5 mg/kg, po administered as single dose and measured over 24 hrs by LC-MS/MS analysis; type: ADME, organism-based; conditions: in vivo
[19] = Oral bioavailability in male C57BL/6J mouse at 5 mg/kg administered as single dose and measured over 24 hrs by LC-MS/MS analysis; type: ADME, organism-based; conditions: in vivo
[20] = AUC (0 to infinity) in male C57BL/6J mouse at 5 mg/kg, po administered as single dose and measured over 24 hrs by LC-MS/MS analysis; type: ADME, organism-based; conditions: in vivo
[21] = system: Mus musculus; experiment: as §2, with “reduction in crypt loss at” for “reduction in body weight loss at”, “3 days by H and E staining based analysis” for “3 days”; type: functional, organism-based; conditions: dose 5-20 mg/kg, time 10.0 day
[22] = system: Mus musculus; experiment: (§3) Antiinflammatory activity in male wild type C57BL/6 mouse model of DSS-induced ulcerative colitis assessed as reduction in IL-1beta level in plasma at 5 to 20 mg/kg, po administered for 10 days with subsequent treatment of DSS for 7 days followed by normal drinking water for 3 days by ELISA; type: functional, organism-based; conditions: dose 5-20 mg/kg, time 10.0 day
[23] = system: BMDM; experiment: Inhibition of LPS/nigericin induced caspase-1 P20 release in M-CSF induced C57BL/6 mouse BMDM cells at 0.5 to 20 uM preincubated with LPS for 4 hrs followed by compound addition for 30 mins and further incubated with nigericin for 30 mins by Western blot analysis; type: functional, cell-based; conditions: dose 0.5-20 µM, time 60.0 min
[24] = system: Mus musculus; experiment: as §3, with “NLRP3” for “IL-1beta”, “colon” for “plasma”, “immunoblot analysis” for “ELISA”; type: functional, organism-based; conditions: dose 5-20 mg/kg, time 10.0 day
[25] = system: BMDM; experiment: Cytotoxicity against C57BL/6 mouse BMDM cells assessed as reduction in cell viability at 0.5 to 100 uM measured after 24 hrs by MTT assay; type: toxicity, cell-based; conditions: dose 0.5-100 µM

Structure (SMILES): COc1ccccc1CCNC(=O)/C(=C/c1ccc(Br)cc1)CS(=O)(=O)CCC#N
- clearance [1]: 37.8 mL/min/kg
- Activity [2]: Active
- Activity [3]: Active
- Cmax [4]: 358 ng/mL
- Activity [5]: inactive
- inhibition [6]: Active
- inhibition [7]: Active
- Activity [8]: Active
- Vd [9]: 5.76 L/kg
- AUC(0-t) at 24 h [10]: 2220 ng·h/mL
- Activity [11]: inactive
- Activity [12]: inactive
- Activity [13]: inactive
- AUC(0-inf) [14]: 2230 ng·h/mL
- inhibition [15]: inactive
- Activity [16]: inactive
- inhibition [17]: inactive
- AUC(0-t) at 24 h [18]: 266 ng·h/mL
- bioavailability [19]: 16.7%
- AUC(0-inf) [20]: 371 ng·h/mL
- Activity [21]: Active
- Activity [22]: Active
- inhibition [23]: Active
- Activity [24]: Active
- Activity [25]: Non-Toxic
